Assay results as given in patent publication US8476197B2, “Aminopropenoates as fungicides” (priority 2009, dated 2013).
Read-outs that look alike come from different tables or passages of the source. Marks after values point to notes of the source that are not given here.

Structure (SMILES): CCOC(=O)C(C#N)=C(NC(C)(C)CSC)c1cc(C)oc1C [Compound 619]
- Log P (pH 2.7): 3.58^[a]

Structure (SMILES): COC(=O)CC(C)NC(=C(C#N)C(=O)OC)c1cccnc1Cl (stereo not drawn) [Compound 620]
- Log P (pH 2.7): 2.11^[a]

Structure (SMILES): CCC(C)OC(=O)C1(NC(=C(C#N)C(=O)OC)c2cccnc2Cl)CC1 (stereo not drawn) [Compound 621]
- Log P (pH 2.7): 2.23^[a]

Structure (SMILES): CCN(CC)CC(C)NC(=C(C#N)C(=O)OC)c1cccnc1Cl (stereo not drawn) [Compound 622]
- Log P (pH 2.7): 0.86^[a]

Structure (SMILES): CCOC(=O)C1(NC(=C(C#N)C(=O)OC)c2cccnc2Cl)CC1 [Compound 623]
- Log P (pH 2.7): 1.66^[a]

Structure (SMILES): CCOCC(C)NC(=C(C#N)C(=O)OC)c1cccnc1Cl (stereo not drawn) [Compound 624]
- Log P (pH 2.7): 2.42^[a]

Structure (SMILES): CCOCC(CC)NC(=C(C#N)C(=O)OC)c1cccnc1Cl (stereo not drawn) [Compound 625]
- Log P (pH 2.7): 2.76^[a]

Structure (SMILES): CCCC(COCC)NC(=C(C#N)C(=O)OC)c1cccnc1Cl (stereo not drawn) [Compound 626]
- Log P (pH 2.7): 3.15^[a]

Structure (SMILES): CCOCC(NC(=C(C#N)C(=O)OC)c1cccnc1Cl)C(C)C (stereo not drawn) [Compound 627]
- Log P (pH 2.7): 3.11^[a]

Structure (SMILES): CCOC(=O)C(C#N)=C(NC(C)C(N)=O)c1ccsc1Br (stereo not drawn) [Compound 628]
- Log P (pH 2.7): 1.9^[a]

Structure (SMILES): CCOC(=O)C(C#N)=C(NC(C)C(=O)NC)c1conc1C (stereo not drawn) [Compound 629]
- Log P (pH 2.7): 1.57^[a]

Structure (SMILES): COC(=O)C(C#N)=C(NC(C)CN(C)C)c1sc(C)nc1C(F)(F)F (stereo not drawn) [Compound 630]
- Log P (pH 2.7): 1.17^[a]

Structure (SMILES): COC(=O)/C(C#N)=C(\NCC(C)N)c1sc(C)nc1C(F)(F)F (stereo not drawn) [Compound 631]
- Log P (pH 2.7): 0.94^[a]

Structure (SMILES): CCOC(=O)C(C#N)=C(NC(C)CN)c1cn(C)nc1C(F)(F)F (stereo not drawn) [Compound 632]
- Log P (pH 2.7): 1.11^[a]

Structure (SMILES): COC(=O)C(C#N)=C(NC(C)C(N)=O)c1sc(C)nc1C(F)(F)F (stereo not drawn) [Compound 634]
- Log P (pH 2.7): 1.69^[a]

Structure (SMILES): CCOC(=O)C(C#N)=C(NC(C)C(N)=O)c1cn(C)nc1C(F)(F)F (stereo not drawn) [Compound 635]
- Log P (pH 2.7): 1.78^[a]

Structure (SMILES): CCOC(=O)C(C#N)=C(NC(C)C(=O)NC)c1cn(C)nc1C(F)(F)F (stereo not drawn) [Compound 636]
- Log P (pH 2.7): 1.95^[a]

Structure (SMILES): CCOC(=O)C(C#N)=C(NC(C)C(=O)NC)c1ccsc1Br (stereo not drawn) [Compound 637]
- Log P (pH 2.7): 2.05^[a]

Structure (SMILES): CNC(=O)C(C)NC(=C(C#N)C(=O)OC)c1sc(C)nc1C(F)(F)F (stereo not drawn) [Compound 638]
- Log P (pH 2.7): 1.93^[a]

Structure (SMILES): CCOC(=O)C(C#N)=C(NC(C)C(=O)NC)c1sccc1C(F)(F)F (stereo not drawn) [Compound 639]
- Log P (pH 2.7): 2.25^[a]

Structure (SMILES): CCOC(=O)C(C#N)=C(NC(C)CN(C)C)c1sc(C)nc1C(F)(F)F (stereo not drawn) [Compound 640]
- Log P (pH 2.7): 1.35^[a]

Structure (SMILES): CCOC(=O)C(C#N)=C(NC(C)C(N)=O)c1sc(C)nc1C(F)(F)F (stereo not drawn) [Compound 641]
- Log P (pH 2.7): 1.96^[a]

Structure (SMILES): CCOC(=O)C(C#N)=C(NC(C)C(=O)NC)c1sc(C)nc1C(F)(F)F (stereo not drawn) [Compound 642]
- Log P (pH 2.7): 2.07^[a]

Structure (SMILES): CCOC(=O)/C(C#N)=C(\NCC(C)N)c1sc(C)nc1C(F)(F)F (stereo not drawn) [Compound 643]
- Log P (pH 2.7): 1.11^[a]

Structure (SMILES): CCOC(=O)C(C#N)=C(NC(C)C(N)=O)c1sccc1Cl (stereo not drawn) [Compound 644]
- Log P (pH 2.7): 1.9^[a]

Structure (SMILES): CCOC(=O)C(C#N)=C(NC(C)C(=O)NC)c1sccc1Cl (stereo not drawn) [Compound 645]
- Log P (pH 2.7): 2.08^[a]

Structure (SMILES): CCOC(=O)C(C#N)=C(NC(C)C(=O)NC)c1ccsc1I (stereo not drawn) [Compound 646]
- Log P (pH 2.7): 2.07^[a]

Structure (SMILES): CCOC(=O)C(C#N)=C(NC(C)C(N)=O)c1ccsc1I (stereo not drawn) [Compound 647]
- Log P (pH 2.7): 1.91^[a]

Structure (SMILES): CCOC(=O)C(C#N)=C(NC(C)CSC)c1cccnc1C (stereo not drawn) [Compound 648]
- Log P (pH 2.3): 2.2
- Log P (pH 7.5): 2.44

Structure (SMILES): CCOC(=O)C(C#N)=C(NC(C)C(=O)OC)c1sccc1Br (stereo not drawn) [Compound 649]
- Log P (pH 2.7): 2.96^[a]

Structure (SMILES): CCOC(=O)C(C#N)=C(NC(C(=O)OC)C(C)C)c1sccc1Br (stereo not drawn) [Compound 650]
- Log P (pH 2.7): 3.67^[a]

Structure (SMILES): CCOC(=O)C(C#N)=C(NC(C)C(N)=O)c1sccc1Br (stereo not drawn) [Compound 652]
- Log P (pH 2.7): 1.94^[a]

Structure (SMILES): CCOC(=O)C(C#N)=C(NC(C)C(=O)OC)c1sccc1C(F)(F)F (stereo not drawn) [Compound 657]
- Log P (pH 2.7): 3.11^[a]

Structure (SMILES): CCOC(=O)C(C#N)=C(NC(C(=O)OC)C(C)C)c1sccc1C(F)(F)F (stereo not drawn) [Compound 659]
- Log P (pH 2.7): 3.62^[a]

Structure (SMILES): COC(=O)C(C#N)=C(NC(C)C(=O)OC)c1sc(C)nc1C(F)(F)F (stereo not drawn) [Compound 665]
- Log P (pH 2.7): 2.62^[a]

Structure (SMILES): COC(=O)C(C#N)=C(NC(C(=O)OC)C(C)C)c1sc(C)nc1C(F)(F)F (stereo not drawn) [Compound 667]
- Log P (pH 2.7): 3.29^[a]

Structure (SMILES): CCOC(=O)C(C#N)=C(NC(C)C(=O)OC)c1cn(C)nc1C(F)F (stereo not drawn) [Compound 673]
- Log P (pH 2.7): 2.31^[a]

Structure (SMILES): CCOC(=O)C(C#N)=C(NC(C(=O)OC)C(C)C)c1cn(C)nc1C(F)F (stereo not drawn) [Compound 675]
- Log P (pH 2.7): 2.84^[a]

Structure (SMILES): CCOC(=O)C(C#N)=C(NC(C)C(=O)OC)c1sc(C)nc1C(F)(F)F (stereo not drawn) [Compound 680]
- Log P (pH 2.7): 2.94^[a]

Structure (SMILES): CCOC(=O)C(C#N)=C(NC(C(=O)OC)C(C)C)c1sc(C)nc1C(F)(F)F (stereo not drawn) [Compound 682]
- Log P (pH 2.7): 3.64^[a]

Structure (SMILES): CCOC(=O)C(C#N)=C(NC(C)C(=O)Nc1ccc2ccccc2c1)c1cn(C)nc1C(F)F (stereo not drawn) [Compound 683]
- Log P (pH 2.7): 3.31^[a]

Structure (SMILES): CCOC(=O)C(C#N)=C(NC(C)COc1c(C)cccc1C)c1cn(C)nc1C(F)F (stereo not drawn) [Compound 684]
- Log P (pH 2.7): 3.96^[a]

Structure (SMILES): CCOC(=O)C(C#N)=C(NC(C)COC)c1cn(C)nc1C(F)F (stereo not drawn) [Compound 685]
- Log P (pH 2.7): 2.41^[a]

Structure (SMILES): CCOC(=O)C(C#N)=C(NC(C)C(=O)OCC)c1cn(C)nc1C(F)F (stereo not drawn) [Compound 686]
- Log P (pH 2.7): 2.62^[a]

Structure (SMILES): CCOC(=O)C(C#N)=C(NC(C)CSC)c1cccnc1OC (stereo not drawn) [Compound 687]
- Log P (pH 2.3): 2.96
- Log P (pH 7.5): 2.95

Structure (SMILES): C=CC(COCc1ccccc1)NC(=C(C#N)C(=O)OCC)c1sccc1C(F)(F)F (stereo not drawn) [Compound 688]
- Log P (pH 2.7): 4.36^[a]

Structure (SMILES): C=CC(COCc1ccccc1)NC(=C(C#N)C(=O)OCC)c1sccc1Br (stereo not drawn) [Compound 689]
- Log P (pH 2.7): 4.31^[a]

Structure (SMILES): C=CC(COCc1ccccc1)NC(=C(C#N)C(=O)OC)c1sc(C)nc1C(F)(F)F (stereo not drawn) [Compound 690]
- Log P (pH 2.7): 3.89^[a]

Structure (SMILES): C=CC(COCc1ccccc1)NC(=C(C#N)C(=O)OCC)c1cn(C)nc1C(F)F (stereo not drawn) [Compound 691]
- Log P (pH 2.7): 3.51^[a]

Structure (SMILES): C=CC(COCc1ccccc1)NC(=C(C#N)C(=O)OCC)c1sc(C)nc1C(F)(F)F (stereo not drawn) [Compound 692]
- Log P (pH 2.7): 4.21^[a]

Structure (SMILES): CCOC(=O)C(C#N)=C(NC(C)(C)C(=O)OC)c1sccc1Br [Compound 693]
- Log P (pH 2.7): 3.23^[a]

Structure (SMILES): CCOC(=O)C(C#N)=C(NC(C)(C)C(=O)OC)c1sccc1C(F)(F)F [Compound 694]
- Log P (pH 2.7): 3.37^[a]

Structure (SMILES): COC(=O)C(C#N)=C(NC(C)(C)C(=O)OC)c1sc(C)nc1C(F)(F)F [Compound 695]
- Log P (pH 2.7): 2.9^[a]

Structure (SMILES): CCOC(=O)C(C#N)=C(NC(C)(C)C(=O)OC)c1cn(C)nc1C(F)F [Compound 696]
- Log P (pH 2.7): 2.51^[a]

Structure (SMILES): CCOC(=O)C(C#N)=C(NC(C)(C)C(=O)OC)c1sc(C)nc1C(F)(F)F [Compound 697]
- Log P (pH 2.7): 3.23^[a]

Structure (SMILES): CCOC(=O)C(C#N)=C(NC(C)C(N)=O)c1nc(Cl)ccc1Cl (stereo not drawn) [Compound 698]
- Log P (pH 2.7): 1.97^[a]

Structure (SMILES): CCOC(=O)C(C#N)=C(NC(C)C(N)=O)c1ncc(Cl)cc1Cl (stereo not drawn) [Compound 699]
- Log P (pH 2.7): 2.01^[a]

Structure (SMILES): CCOC(=O)C(C#N)=C(NC(C)(C)CSC)c1sccc1C(F)(F)F [Compound 700]
- Log P (pH 2.7): 3.8^[a]

Structure (SMILES): CCOC(=O)C(C#N)=C(NC(C)(C)CSC)c1sccc1Br [Compound 701]
- Log P (pH 2.7): 3.73^[a]

Structure (SMILES): COC(=O)C(C#N)=C(NC(C)(C)CSC)c1sc(C)nc1C(F)(F)F [Compound 702]
- Log P (pH 2.7): 3.27^[a]

Structure (SMILES): CCOC(=O)C(C#N)=C(NC(C)(C)CSC)c1cn(C)nc1C(F)F [Compound 703]
- Log P (pH 2.7): 2.84^[a]
